Each structure is given as a SMILES string.

Experiment [1] concerns SCLC PDXs (TKO-2 and TKO-5). The experiment is described as follows: SCLC patient-derived xenografts, tumor growth. Format: in vivo, Nu/Nu nude mice. The settings on record: 15mg/kg/d i.p., 2-4 weeks. The protocol:
Six-week-old female Nu/Nu nude mice were purchased from Envigo (Indianapolis, IN) and housed under pathogen-free conditions in microisolator cages. The animal propagation protocol was approved by the Emory Institutional Animal Care and Use Committee (IACUC) and the Emory Animal Ethics Committee. 3×10^6 lung cancer cells were injected into subcutaneous tissue in the flank region of nude mice. The tumors were allowed to grow to an average volume of 150~200 mm^3 prior to initiation of therapy as previously described, [29]. Patient-derived xenografts (PDXs, TKO-002 and TKO-005) were established as part of an IRB-approved phase II co-clinical trial of arsenic trioxide in patients with relapsed SCLC who had failed standard platinum-based chemotherapy. Tumor samples were obtained by image-guided biopsy and were directly implanted into Nu/Nu nude mice without intervening propagation in plastic culture plates. Direct serial propagation of growing tumor occurred for up to 5 generations. The animal propagation protocol was approved by the Emory IACUC and the Emory Animal Ethics Committee. Mice with SCLC and NSCLC xenografts or PDXs were treated with BKA-073 intraperitoneally (i.p.) or venetoclax orally as indicated. During treatment, tumor volume (V) was measured by caliper measurements once every two days as described previously. Mice were euthanized by CO2 inhalation at the end of treatment. […]
On the technique in general: Xenograft models place foreign cells or tissue in a host animal.

The test system of experiment [2] is A549-P, A549-IRR, H358-P, H358-IRR, H460-P and H460-IRR cells. The experiment is described as follows: Colony formation assay in parental and radioresistant cells. To be noted: 0.5 µM. It is filed as cell-based, human. The protocol: To further investigate whether Bak contributes to radioresistance, we established three lung cancer cell lines with ionizing radiation resistance (i.e. A549-IRR, H358-IRR and H460-IRR) as described, [52], [53]. […] A549-P, […] and H460-P cells remained sensitive to IR, but A549-IRR, H358-IRR and H460-IRR became insensitive to IR. […] To further test this in vivo, NSCLC xenografts derived from A549-P and A549-IRR cell lines were treated with IR (2Gy/exposure, every other day for total of 5 times) or BKA-073 (15 mg/kg/d) for 4 weeks. We observed that lung cancer xenografts derived from A549-IRR cells were resistant to IR treatment whereas xenografts derived from A549-P were sensitive to IR treatment (Figure S7C).
Figure S7. BKA-073 overcomes radioresistance of lung cancer in vitro and in vivo. (A) Expression levels of Bak in A549-P versus A549-IRR cells, H358-P versus H358 -IRR cells or H460-P versus H460-IRR cells were analyzed by Western blot. (B) A549-P, A549-IRR, H358-P, H358-IRR, H460-P and H460-IRR cells were treated with IR (5Gy), BKA -073 (0.5 µM), followed by colony formation assay. Data represent the mean ± SD, n = 3 per group. ***P < 0.001, ns: not significant, by 2-tailed t test. […]
Tumor volume was measured once every 2 days. After treatment, mice were sacrificed and tumors were removed and analyzed. […]

Another experiment deals with T1, human Bak protein (WT) (Homo sapiens, UniProt Q16611).
T1 construct: His6; made in house; host or cells: Escherichia coli BL21 DE3
Kind of experiment: Isothermal titration calorimetry (ITC). The settings on record: 25 °C, one-site binding. Here is the method: The binding affinity of BKA-073 with Bak protein was examined by isothermal titration calorimetry (ITC) assay as described, [28]. ITC assay was carried out in the auto-iTC200 instrument (MicroCal, GE) at 25 °C. Purified recombinant human or mouse Bak protein was loaded into a 96 Deepwell PP plate. BKA-073 compound was then titrated stepwise into the protein for a total of 16 injections. Reference power and initial delay were set as 5 µCal/sec and 60s, respectively. A string speed of 750 rpm was used for the ITC measurements. The binding constant (Kd) value was determined by fitting the titration curve to a one-site binding mode, using the Origin software provided by the manufacturer.
To confirm the binding of BKA-073 with Bak, we first conducted a competitive fluorescence polarization (FP) assay using purified human Bak protein, fluorescent Bak BH3 domain peptide, and BKA-073 as described, [37]-[40]. […] There are multiple amino acid differences in the BH3 domains between Bak and other Bcl2 family members, which helps to explain why BKA-073 only binds to Bak but not to other Bcl2 family members (i.e. Bax, Bcl2, Bcl-XL, Bcl-w and Mcl-1). In addition to the FP assay, isothermal titration calorimetry (ITC) was also employed to measure Bak/BKA-073 binding. […] In addition to human Bak/BKA-073 binding, we measured mouse Bak/BKA-073 binding using ITC.
On the technique in general: ITC needs no label: the signal is the heat of the interaction.

T1 sequence (Q16611 1-186 limits assumed): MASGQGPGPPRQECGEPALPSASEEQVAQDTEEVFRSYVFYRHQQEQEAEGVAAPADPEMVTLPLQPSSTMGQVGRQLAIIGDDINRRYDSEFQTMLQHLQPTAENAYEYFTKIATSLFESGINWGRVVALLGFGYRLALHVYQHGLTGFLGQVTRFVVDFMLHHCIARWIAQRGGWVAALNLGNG

Broadly, the Kd is the equilibrium constant for the complex coming apart. A low value points to a tighter complex. On to `COc1ccc2nc3ccccc3c(NCCNCC(C)O)c2c1` (stereo not shown) [BKA-073], for which the tumor growth entry in experiment [1] is “potently suppressed tumor growth”. Besides, the “sensitivity (colony formation)” value is “sensitive” in experiment [2] (parental cell lines (A549-P, H358-P, H460-P)) and “sensitive” in experiment [2] (radioresistant cell lines (A549-IRR, H358-IRR, H460-IRR)). This compound gave a Kd on human Bak protein (WT) of 88.6 ± 5.73 nM.

The values above are taken from publication PMC8344021, “Discovery of Small Molecule Bak Activator for Lung Cancer Therapy” (Theranostics, 2021).
